Source: patent US7109329B2, “Neurologically active compounds and compounds with multiple activities” (priority 1988, dated 2006)

Columns and labels:
[1] = Formation of scar tissue at the trauma site; format: in vivo
Description: It is believed that these mixed agonists interfere with triple helix formation in the synthesis of collagen protein, thus preventing or reducing the formation of hard scar tissue at the trauma site.
The purpose of liquid nitrogen is to reduce the structural integrity of the collagen laden, glial scar tissue, by freezing and defrosting. Collagenase then initiates a debridgement of the scar without attacking the nervous and osseous tissue. If required, streptokinase, or alteplase, both plasminogen activators can also be used to bring about a complete debridgement. In addition to 3-amino-propionitrile (a latherogen), 5-fluorodeoxyuridine and dehydroproline can be used to arrest further glial and fibroblastic invasion of the scar region, respectively.

[2] = Anesthesia in rats judged by reflexes and wakefulness; settings: for anesthesia judged by reflexes (patellar, urethro-anal, startle, corneal etc.) after 30 minutes: room temperature 21° C., G 12 mg/kg, D 6 mg/kg or combination; for anesthesia judged by reflexes (patellar, urethro-anal, startle, corneal etc.) after 30 minutes / reflexes tested (as in Examples 48–53) / appearance of ears and digits of anesthetized animals / survival at the given doses: I.P.; for reflexes tested (as in Examples 48–53): room temperature 19.4° C.; for reflexes tested (as in Examples 48–53) / appearance of ears and digits of anesthetized animals: guanabenz acetate 12 mg/kg; for reflexes tested (as in Examples 48–53) / appearance of ears and digits of anesthetized animals / survival at the given doses: pentabarbital 25 mg/kg, ketamine 80 mg/kg
[3] = for core temperature allowed to fall to: 4 mg intraperitoneally, ambient 21° C., before transfer to 42° C. room (guanabenz: after about 15 minutes); for core temperature twenty minutes after injection: room temperature 21° C., G 12 mg/kg, D 6 mg/kg or combination; for core temperature twenty minutes after injection / mean core temperature one hour after injection: I.P.; for mean core temperature one hour after injection: room temperature 19.4° C., guanabenz acetate 12 mg/kg, pentabarbital 25 mg/kg, ketamine 80 mg/kg
Experimental: Room temperature was 21.5° C.
The core temperatures of the rats were allowed to fall to approximately 30° C., after about 15 minutes. At that time, the rats were placed in a temperature controlled room maintained at 42° C., together with 2 control rats treated only with the dextrose solution.
The core temperatures of the rats were allowed to fall to approximately 30° C. At that time, the rats were placed in a temperature controlled room maintained at 42° C., together with two control rats treated only with the dextrose solution.

[4] = Core temperature and behaviour of treated rats in a room at 42° C.; format: in vivo, rat; settings: 4 mg intraperitoneally; for core temperature in the 42° C. room: placed at core temperature about 30° C.
[5] = Intravenous anesthesia of a 70 kg mammal; format: in vivo; settings: 70 kg mammal, 20 mg aminophylline intravenous over five minutes
Experimental: Thereafter, an intravenous injection containing 20 mg of aminophylline is administered over a period of five minutes. The large mammal is fully awakened within about 20 minutes, appearing alert and refreshed.
The period of time required to fully reverse the anesthesia can be increased or decreased by proportionally changing the amount of the antagonist. After metabolism of guanabenz, the mammal will spontaneously awaken, within about three to six hours after the I.V. drip is discontinued.

[6] = Reversal of guanabenz-induced anesthesia and hypothermia by antagonists; format: in vivo, rat
Experimental: The effect can also be partially reversed, or reversed in stages, if desired, by administering several smaller aliquots of the antagonist.
Room temperature was 21.5° C. […] The control rats, injected only with the carrier dextrose solution, maintained a relatively constant temperature during the entire test period under identical conditions of the test.

[7] = Electrical tail stimulation, vocalization threshold (anesthesia) in rats; format: in vivo, rat; settings: guanabenz-anesthetized rats, 40 mgs. aminophylline
Experimental: A fifth rat was treated with merely an equal amount of the dextrose solution without guanabenz acetate. The rats were subjected to an electrical tail stimulation, by electrodes attached to their tails, to determine the point of positive (threshold) vocalization.
The normal vocalization threshold, and the point at which the control rat vocalized was approximately 7 volts. […] To bring the rats out of anesthesia, the rats were then injected with 40 mgs. of aminophylline, also in 1 ml of a 5% aqueous dextrose solution. […] The normal threshold for vocalization was reestablished, as there was no vocalization at 6 volts following recovery from anesthesia.
The rats were maintained under anaesthesia for a period of 50 minutes before injection of the aminophylline.

[8] = 4 mg I.P., room temperature 21.5° C.
[9] = guanabenz-treated rats (4 mg I.P.), Yohimbine 10 mg I.P.

For N=C(N)NN [Aminoguanidine], the “effect on formation of the scar” value [1] was “interfere with formation of the scar”.
With COc1cc(C=NNc2ncc[nH]2)cc(OC)c1OC [Compound 13, Melazine] the “anesthetic state of the treated rats” value [2, 8] was “remained awake”, the mean intraperitoneal temperature [3, 8] was 30.2 °C and the “temperatures of the liver and the kidneys” value [3, 8] was ~32.7 °C. The “core temperature (colonic measurement) after drop” value ([3]; eight rats each, 4 mg I.P. in 5% dextrose, room temperature 21.5° C., normal value 36.5° C.) was 21.5 °C.
For Clc1cccc(Cl)c1C=Nc1nc(N=Cc2c(Cl)cccc2Cl)nc(N=Cc2c(Cl)cccc2Cl)n1 [Compound 18, 2,4,6-Tris (2,6-dichlorobenzylideneamino)-1,3,5-s-Triazine], the “core temperature allowed to fall to” value [3] was “approximately 30 °C”, the “state of treated rats in the 42° C. room” value [4] was “remained calm, but active” and the “core temperature in the 42° C. room” value [4] was 30 °C.
With Cn1c(=O)c2[nH]cnc2n(C)c1=O [aminophylline] the “time until fully awakened from guanabenz anesthesia” value [5] was ≤ 20 min, the “effect on guanabenz-induced anesthesia” value [6, 9] was “caused them to awaken” and the “effect on guanabenz-induced hypothermia (body temperature)” value [6, 9] was “practically no effect on body temperature”. The “effect of injection on melazine-treated rats” value ([6]; three melazine-treated rats) was “no discernible effect”, the “voltage at which vocalization was present” value ([7]; by 8 minutes after injection) was 7 volts and the “voltage at which vocalization returned” value ([7]; within 6 minutes after injection) was 12 volts.
With Clc1cccc(Cl)c1N=C1NCCN1 [clonidine] the “effect on formation of the scar” value [1] was “interfere with formation of the scar”.
With CN1C(=O)CN=C(c2ccccc2)c2cc(Cl)ccc21 [diazepam] the “anesthesia judged by reflexes (patellar, urethro-anal, startle, corneal etc.) after 30 minutes” value [2] was “all such reflexes were present” and the “core temperature twenty minutes after injection” value [3] was “no change”.
For N=C(N)N/N=C/c1c(Cl)cccc1Cl [guanabenz acetate], the “reflexes tested (as in Examples 48–53)” value [2] was “disappeared”, the “anesthesia judged by reflexes (patellar, urethro-anal, startle, corneal etc.) after 30 minutes” value [2] was “profound anesthesia” and the “core temperature allowed to fall to” value [3] was “approximately 30 °C”. For the same molecule, the “mean core temperature one hour after injection” value (“mean core temperature one hour” for short) [3] was 24.3 °C, the “core temperature twenty minutes after injection” value [3] was “about 31 °C” and the “state of treated rats in the 42° C. room” value [4] was “remained under anesthesia”. The “core temperature in the 42° C. room” value [4] was 30 °C.
In the case of CNC1(c2ccccc2Cl)CCCCC1=O (centres unmarked) [ketamine], the “appearance of ears and digits of anesthetized animals” value [2] is reported as “semi-cyanotic”, the “survival at the given doses” value [2] is reported as “did not survive” and the “reflexes tested (as in Examples 48–53)” value [2] is reported as “disappeared”. The “mean core temperature one hour” value [3] was 34.5 °C.
With CCCC(C)C1(CC)C(=O)NC(=O)NC1=O (centres unmarked) [pentabarbital] the “appearance of ears and digits of anesthetized animals” value [2] was “semi-cyanotic”, the “survival at the given doses” value [2] was “did not survive” and the “reflexes tested (as in Examples 48–53)” value [2] was “disappeared”. The “mean core temperature one hour” value [3] was 29.3 °C.
